Drawing on patent US9279003B2, “Analogs of sodium channel peptide toxin” (priority 2010, dated 2016), this text covers IC50 for four compounds.

For one assay, the system named is Nav1.2 (rBIIa). The class given is cell-based, rat.
The target in the next assay is human Nav1.7 (Homo sapiens, UniProt Q15858). As to the kind of experiment: cell-based. The class given is cell-based.

Where a SMILES comes first, the peptide text is derived from it. Bridges are numbered along the chain shown (N, C = ends). [ ]: non-standard residue; d: D form. NMeL = CN[C@@H](CC(C)C)C(=O)O

Chain of human Nav1.7 (Q15858 other isoform, or with tags, fused parts or gaps): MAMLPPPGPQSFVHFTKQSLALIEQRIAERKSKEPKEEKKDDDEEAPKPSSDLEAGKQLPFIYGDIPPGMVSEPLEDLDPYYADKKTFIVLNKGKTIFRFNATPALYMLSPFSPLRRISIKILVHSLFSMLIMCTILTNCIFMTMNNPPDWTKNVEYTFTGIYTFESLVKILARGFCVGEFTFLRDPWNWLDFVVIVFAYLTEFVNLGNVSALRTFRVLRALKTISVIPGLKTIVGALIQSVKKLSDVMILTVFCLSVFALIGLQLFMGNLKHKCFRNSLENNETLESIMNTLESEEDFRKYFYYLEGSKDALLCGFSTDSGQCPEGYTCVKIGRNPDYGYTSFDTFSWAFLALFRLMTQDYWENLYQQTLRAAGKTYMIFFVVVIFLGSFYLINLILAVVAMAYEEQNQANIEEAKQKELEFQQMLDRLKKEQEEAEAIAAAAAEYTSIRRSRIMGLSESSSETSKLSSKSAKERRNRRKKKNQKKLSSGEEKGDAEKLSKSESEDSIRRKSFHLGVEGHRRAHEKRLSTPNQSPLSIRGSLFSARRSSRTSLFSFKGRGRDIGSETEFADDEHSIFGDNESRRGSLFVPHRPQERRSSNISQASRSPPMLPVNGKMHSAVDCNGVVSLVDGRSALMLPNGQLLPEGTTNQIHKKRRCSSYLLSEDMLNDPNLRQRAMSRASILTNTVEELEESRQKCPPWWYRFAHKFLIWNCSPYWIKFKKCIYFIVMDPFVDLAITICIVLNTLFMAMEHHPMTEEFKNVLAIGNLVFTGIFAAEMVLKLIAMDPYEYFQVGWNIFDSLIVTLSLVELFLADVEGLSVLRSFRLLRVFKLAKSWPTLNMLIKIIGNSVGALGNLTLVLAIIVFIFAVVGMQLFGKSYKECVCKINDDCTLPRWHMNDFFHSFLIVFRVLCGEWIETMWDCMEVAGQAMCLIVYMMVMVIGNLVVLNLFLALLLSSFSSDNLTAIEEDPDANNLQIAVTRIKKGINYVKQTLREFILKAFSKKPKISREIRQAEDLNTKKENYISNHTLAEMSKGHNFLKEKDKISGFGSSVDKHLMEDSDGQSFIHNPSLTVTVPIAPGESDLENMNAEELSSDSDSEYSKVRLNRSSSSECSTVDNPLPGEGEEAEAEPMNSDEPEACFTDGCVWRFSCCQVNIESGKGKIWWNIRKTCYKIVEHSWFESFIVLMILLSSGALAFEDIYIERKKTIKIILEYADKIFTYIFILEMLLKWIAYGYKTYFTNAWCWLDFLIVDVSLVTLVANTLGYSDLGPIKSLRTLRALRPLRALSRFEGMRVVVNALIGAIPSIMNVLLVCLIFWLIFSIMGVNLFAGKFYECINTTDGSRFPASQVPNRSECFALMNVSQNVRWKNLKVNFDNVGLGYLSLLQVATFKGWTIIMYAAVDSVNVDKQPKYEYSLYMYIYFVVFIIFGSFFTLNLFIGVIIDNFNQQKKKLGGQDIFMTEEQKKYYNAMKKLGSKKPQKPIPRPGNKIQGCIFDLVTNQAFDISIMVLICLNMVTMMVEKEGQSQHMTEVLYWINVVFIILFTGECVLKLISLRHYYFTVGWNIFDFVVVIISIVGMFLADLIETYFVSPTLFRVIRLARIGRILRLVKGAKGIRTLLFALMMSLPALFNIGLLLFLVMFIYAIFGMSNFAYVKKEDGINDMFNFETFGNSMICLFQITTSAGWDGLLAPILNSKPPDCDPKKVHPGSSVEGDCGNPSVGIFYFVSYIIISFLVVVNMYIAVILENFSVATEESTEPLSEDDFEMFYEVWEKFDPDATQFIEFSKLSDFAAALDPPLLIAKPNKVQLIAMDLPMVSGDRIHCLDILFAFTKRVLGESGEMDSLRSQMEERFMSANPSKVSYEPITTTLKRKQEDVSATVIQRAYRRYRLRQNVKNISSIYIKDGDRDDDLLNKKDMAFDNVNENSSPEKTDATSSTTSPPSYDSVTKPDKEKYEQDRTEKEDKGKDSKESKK

Broadly, the IC50 is the concentration at which inhibition is half-maximal. The low end stands for inhibition by little substance, the high end for a need for much substance. `CSCC[C@@H]1NC(=O)[C@H](Cc2c[nH]c3ccccc23)NC(=O)[C@H](CCCCN)NC(=O)[C@H](CCC(N)=O)NC(=O)[C@@H](NC(=O)[C@@H](N)Cc2ccc(O)cc2)CSSC[C@@H]2NC(=O)[C@@H]3CSSC[C@@H](C(=O)N[C@@H](CCCCN)C(=O)N[C@@H](CCCCN)C(=O)N[C@@H](CCCCN)C(=O)N(C)[C@@H](CC(C)C)C(=O)N[C@@H](Cc4c[nH]c5ccccc45)C(=O)O)NC(=O)[C@H](Cc4c[nH]c5ccccc45)NC(=O)[C@H](CC(C)C)NC(=O)[C@H](CCCNC(=N)N)NC(=O)[C@H](CSSC[C@H](NC(=O)[C@H]([C@@H](C)O)NC(=O)[C@H](Cc4c[nH]c5ccccc45)NC1=O)C(=O)N[C@@H](CC(=O)O)C(=O)N[C@@H](CO)C(=O)N[C@@H](C)C(=O)N[C@@H](CCCNC(=N)N)C(=O)N[C@@H](CCCCN)C(=O)N3)NC(=O)[C@H](C(C)C)NC(=O)[C@H](CC(C)C)NC(=O)CNC(=O)[C@H](CCC(=O)O)NC2=O` [compound 8] (H-YCQKWMWTCDSARKCCEGLVCRLWCKKK[NMeL]W-OH; disulfide 2-16, 9-21, 15-25): the figures for the 50% inhibitory concentration (IC50) in the assay on Nav1.2 (rBIIa) and against human Nav1.7 were 51 ± 10 nM and 18 nM, respectively.
Regarding `CSCC[C@@H]1NC(=O)CNC(=O)[C@H](CCC(=O)O)NC(=O)[C@@H]2CSSC[C@H](NC(=O)[C@@H](N)Cc3ccc(O)cc3)C(=O)N[C@@H](CCC(N)=O)C(=O)N[C@@H](CCCCN)C(=O)N[C@@H](Cc3c[nH]c4ccccc34)C(=O)N[C@@H](CCSC)C(=O)N[C@@H](Cc3c[nH]c4ccccc34)C(=O)N[C@@H]([C@@H](C)O)C(=O)N[C@H]3CSSC[C@H](NC(=O)[C@H](C(C)C)NC1=O)C(=O)N[C@@H](CCCNC(=N)N)C(=O)N[C@@H](CC(C)C)C(=O)N[C@@H](Cc1c[nH]c4ccccc14)C(=O)N[C@H](C(=O)N[C@@H](CCCCN)C(=O)N[C@@H](CCCCN)C(=O)N[C@@H](CCCCN)C(=O)N[C@@H](CC(C)C)C(=O)N[C@@H](Cc1c[nH]c4ccccc14)C(=O)O)CSSC[C@H](NC(=O)[C@H](CCCCN)NC(=O)[C@H](CCCNC(=N)N)NC(=O)[C@H](C)NC(=O)[C@H](CO)NC(=O)[C@H](CC(=O)O)NC3=O)C(=O)N2` [compound 3], the IC50 in the assay with Nav1.2 (rBIIa) stood at 8 ± 2 nM; at human Nav1.7 it was 0.2 ± 0.03 nM.
For `CSCC[C@@H]1NC(=O)[C@H](Cc2c[nH]c3ccccc23)NC(=O)[C@H](CCCCN)NC(=O)[C@H](CCC(N)=O)NC(=O)[C@@H](NC(=O)[C@@H](N)Cc2ccc(O)cc2)CSSC[C@@H]2NC(=O)[C@@H]3CSSC[C@@H](C(=O)N[C@@H](CCCCN)C(=O)N[C@@H](CCCCN)C(=O)N[C@@H](CCCCN)C(=O)N[C@@H](CC(C)C)C(=O)N[C@@H](Cc4c[nH]c5ccccc45)C(=O)O)NC(=O)[C@H](Cc4c[nH]c5ccccc45)NC(=O)[C@H](CC(C)C)NC(=O)[C@H](CCCNC(=N)N)NC(=O)[C@H](CSSC[C@H](NC(=O)[C@H]([C@@H](C)O)NC(=O)[C@H](Cc4c[nH]c5ccccc45)NC1=O)C(=O)N[C@@H](CC(=O)O)C(=O)N[C@@H](CO)C(=O)N[C@@H](C)C(=O)N[C@@H](CCCNC(=N)N)C(=O)N[C@@H](CCCCN)C(=O)N3)NC(=O)[C@H](C(C)C)NC(=O)[C@H](CC(C)C)NC(=O)CNC(=O)[C@H](CCC(=O)O)NC2=O` [compound 6] (H-YCQKWMWTCDSARKCCEGLVCRLWCKKKLW-OH; disulfide 2-16, 9-21, 15-25), the IC50 in the assay on Nav1.2 (rBIIa) stood at 24 ± 10 nM; at human Nav1.7 it was 1 nM.
With `CC[C@H](C)[C@H](NC(=O)[C@H](CC(C)C)N(C)C(=O)[C@H](CCCCN)NC(=O)[C@H](CCCCN)NC(=O)[C@H](CCCCN)NC(=O)[C@@H]1CSSC[C@@H]2NC(=O)[C@H](CCCCN)NC(=O)[C@H](CCCNC(=N)N)NC(=O)[C@H](C)NC(=O)[C@H](CO)NC(=O)[C@H](CC(=O)O)NC(=O)[C@@H]3CSSC[C@H](NC(=O)[C@H](C(C)C)NC(=O)[C@H](CC(C)C)NC(=O)CNC(=O)[C@H](CCC(=O)O)NC(=O)[C@H](CSSC[C@H](NC(=O)[C@@H](N)Cc4ccc(O)cc4)C(=O)N[C@@H](CCC(N)=O)C(=O)N[C@@H](CCCCN)C(=O)N[C@@H](Cc4c[nH]c5ccccc45)C(=O)N[C@@H](CCSC)C(=O)N[C@@H](Cc4c[nH]c5ccccc45)C(=O)N[C@@H]([C@@H](C)O)C(=O)N3)NC2=O)C(=O)N[C@@H](CCCNC(=N)N)C(=O)N[C@@H](CC(C)C)C(=O)N[C@@H](Cc2c[nH]c3ccccc23)C(=O)N1)C(=O)O` [compound 12] (H-YCQKWMWTCDSARKCCEGLVCRLWCKKK[NMeL]I-OH; disulfide 2-16, 9-21, 15-25), the IC50 came to 138 ± 40 nM in the assay on Nav1.2 (rBIIa) and 528 ± 100 nM at human Nav1.7.
